Values after ≈ are worked out from the molar mass of the structure shown. “Also recorded” adds a separate entry of the source. Read-outs that look alike come from different tables or passages of the source.

These results are taken from paper PMC11484510, “Antibacterial activity of structurally diverse natural prenylated isobavachalcone derivatives” (RSC Advances, 2024).

In data set [1] the test system is S. aureus ATCC 29213. Briefly: MIC, broth microdilution (CLSI), Alamar blue. The following applies: S. aureus ATCC 29213, 24 hours at 37 °C, read-out: Minimum inhibitory concentration (MIC) S. aureus. It counts as cell-based. An excerpt: (§1) The bacterial strains S. aureus ATCC 29213, MRSA ATCC 15187, E. coli ATCC 25922, and P. aeruginosa ATCC 27853 were obtained from ATCC (American Type Culture Collection). Cation-adjusted Mueller–Hinton broth (MHB; Becton–Dickinson, Cockeysville, MD) was used to determine the minimum inhibitory concentration (MIC). Mueller–Hinton agar (MHA; Becton–Dickinson) was used for minimum bactericidal concentration (MBC) studies. Alamar blue (Himedia) was used to detect the MIC value.
(§2) The antibacterial activity of the compounds against S. aureus ATCC 29213, MRSA ATCC 15187, E. coli ATCC 25922, and P. aeruginosa ATCC 27853 was determined through a broth microdilution method according to the guidelines of the Clinical and Laboratory Standards Institute (CLSI).[50] […] Growth control and media control were employed along with 2% DMSO as vehicle control.
(§3) In a 96-well flat bottom plate, the test compounds were two-fold serially diluted in Mueller Hinton Broth (MHB). The final concentrations of the compounds ranged from 100 to 0.08 μM. 100 μL of standardized bacterial inoculum with turbidity equivalent to 0.5 McFarland standard (1.5 × 10^8 CFU mL^−1) was diluted 1 : 100 (1.5 × 10^6 CFU mL^−1) in Mueller Hinton Broth and inoculated in the plates.[51] The plates were incubated for 24 hours at 37 °C. After incubation, 10 μL of freshly prepared Alamar blue (Himedia) was added to each well of the plate, and plates were further incubated at 37 °C for 30 minutes. After incubation, the fluorescence was measured at excitation/emission of 540–570/580–610 nm. The percentage inhibition and viability were calculated for the controls, and the Gompertz curve was utilized to estimate the minimum inhibitory concentration.

The subject of data set [2] is E. coli ATCC 25922. Briefly: MIC, broth microdilution (CLSI), Alamar blue. The following applies: E. coli ATCC 25922, 24 hours at 37 °C, read-out: Minimum inhibitory concentration (MIC) E. coli. The format is cell-based.
Description: as §1, §2, §3

The test system of data set [3] is P. aeruginosa ATCC 27853. In words: MIC, broth microdilution (CLSI), Alamar blue. It counts as cell-based. The following applies: P. aeruginosa ATCC 27853, 24 hours at 37 °C, read-out: Minimum inhibitory concentration (MIC) P. aeruginosa.
Description: as §1, §2, §3
(Broth dilution looks for growth in wells or tubes with falling amounts of substance.)

For data set [4], the system named is RAW 264.7 macrophage cell line. In words: Cell viability assay (MTT). The format is cell-based, murine. The conditions noted are these: CC50 (RAW 264.7)/MIC with respect to S. aureus. The procedure:
(§4) RAW 264.7 cells were acquired from the American type culture collection (ATCC, Manassas, VA) and cultured in Dulbecco's modified eagle's medium (DMEM, Gibco, Life Technologies, NY) supplemented with 10% fetal bovine serum (FBS) at 37 °C and 5% CO2. MTT dye (Himedia) was used to detect CC50 values. The antibiotics ciprofloxacin hydrochloride monohydrate (Himedia), kanamycin sulfate (Himedia), and vancomycin (Himedia) were used for reference in microbiological assays.
(§5) The effect of compounds (IBC, IBC-2, and IBC-3) on the viability of cells was evaluated at different concentrations against macrophage cell lines through the 3-(4,5-dimethylthiazol2-yl)-2, 5-diphenyltetrazolium bromide (MTT) assay. The RAW 264.7 cells are monocyte/macrophage-like cells originating from an Abelson leukemia virus-transformed cell line derived from BALB/c mice. Due to their reliability and consistency, these cell lines are widely utilized for both in vitro and in vivo analyses.[52] The MTT assay is a colorimetric assay used to measure the viability and cytotoxicity of cells. The cells (2 × 10^4 cells per well) were grown at 37 °C with 5% CO2 for 48 hours, then exposed to compounds with different concentrations. […] After 20–21 hours, 20 μL of MTT dye at 2.5 mg mL^−1 concentration was added to each well and incubated for 4 hours. 100 μL DMSO solubilized the water-insoluble purple and white formazan produced.[53] The formation of the formazan salt by mitochondrial dehydrogenases was measured at 570.0 nm after incubating for 20 min. The percentage cytotoxicity was calculated with respect to the untreated cells, and the CC50 value was calculated. CC50 was defined as the concentration of an inhibitor that reduces cellular activities by 50% compared to untreated control cultures. The CC50 values were calculated as the concentration where the absorbance was reduced by 50% using GraphPad Prism software.[54] The selectivity index (SI) determines the safety profile of the compound. It is calculated as the ratio of compound concentration at which 50% of cell growth is inhibited compared to untreated cells (CC50) to the effective inhibiting concentration against bacterial strain (MIC). The high SI (>10 fold of MIC) of a drug is proven to have a favorable safety profile.[28] Selectivity index (SI) = CC50 of the compound (μM)/MIC of the compound (μM).

Data set [5] can be described thus: Cell viability assay (MTT). The format is cell-based, murine. The conditions noted are these: mouse, RAW 264.7 macrophage cells; RAW 264.7 macrophage cell line, MTT assay. As to the method: as §4, §5
Background: Tetrazolium assays rely on reduction of a dye to a coloured formazan, in cell work by metabolically active cells.

For data set [6], the system named is S. aureus. Briefly: Combinational study (checkerboard microdilution) with standard drugs. It counts as cell-based. The following applies: for MIC: Staphylococcus aureus, read-out: MIC alone. The procedure: The Fractional Inhibitory Concentration Index (FICI) was calculated for each test compound and reference drug to find the combinational effect.
In a 96-well flat bottom plate, the reference drug with 4× MIC was serially diluted horizontally. The test compounds with 4× MIC were serially diluted two-fold outside the plate in 1.5 mL Eppendorf's using Mueller Hinton Broth (MHB). These two serially diluted compounds were combined to create drug-compound combinations in the plate. The reference drug (horizontally) and tested compounds (vertically) alone were serially diluted for MIC determination. 100 μL of the standardized bacterial inoculum with a turbidity equivalent to a 0.5 McFarland standard were diluted 1 : 100 in Mueller Hinton Broth and inoculated in the plates. The plates were incubated for 24 hours at 37 °C. After incubation, 10 μL of freshly prepared Alamar blue (Himedia) was added to each well of the plate, and the plates were further incubated at 37 °C for 30 minutes. After incubation, the plates were visually observed. […] The FICI was calculated using the formula FICI = FIC of compound + FIC of drug. The calculation followed is FICI (CA/(MICA)) + (CB/(MICB)), where CA is the MIC of the compound in combination, CB is the MIC of the drug in combination, and MICA and MICB are the MIC values of individual compounds and drugs, respectively. The range selection followed the interpretation criteria. The FICI range of 0.5 to 4 indicates indifference, ≤ or =0.5 indicates synergy and >4 indicates antagonism.[57]

The test system of data set [7] is MRSA ATCC 15187. In words: MIC, broth microdilution (CLSI), Alamar blue. The format is cell-based, Methicillin-resistant S. aureus. The following applies: read-out: Minimum inhibitory concentration (MIC) MRSA.
Description: as §1, §2, §3

In data set [8] the test system is S. aureus ATCC 29213. In words: MBC, plating on MHA. The format is cell-based. The following applies: Staphylococcus aureus, ATCC29213; more than 99.9% of the cells killed; read-out: Minimum bactericidal concentration (MBC) S. aureus.
Description: as §1
(§6) MBC is defined as the lowest concentration of the compound at which more than 99.9% of the cells were killed compared with the growth control. The minimum compound concentration at which no visible bacterial growth was observed was taken as the Minimum Bactericidal Concentration (MBC).[50]

Data set [9] deals with P. aeruginosa ATCC 27853. Briefly: MBC, plating on MHA. The format is cell-based. The following applies: Pseudomonas aeruginosa, ATCC27853; more than 99.9% of the cells killed; read-out: Minimum bactericidal concentration (MBC) P. aeruginosa.
Description: as §1, §6

Data set [10] deals with S. aureus ATCC 29213. Briefly: Time-kill assay. The conditions noted are these: for Time-kill profile: MIC, 2× MIC, 4× MIC, 1 h to 24 h, 37 °C. The format is cell-based.
Data set [11] has as its system S. aureus. In words: Cell integrity analysis by PI staining. The format is cell-based. The conditions noted are these: drug control at 1× MIC, 30 minutes. The procedure:
Propidium iodide (PI) indicates cell integrity, emitting a red fluorescence signal. PI's polar and hydrophilic nature impedes its entrance within active bacterial cells, but within perforated dead cells, it can easily bind to nucleic acid (DNA/RNA).[32,60]S. aureus bacterial cells were incubated overnight at 37 °C and diluted further 1 : 100 in Mueller Hinton Broth (MHB). The diluted culture was grown until its OD600 reached 0.5. […] Vancomycin was used as a drug control at 1× MIC, while untreated bacterial cells were used as growth control. The samples were centrifuged at 5000 rpm speed at 4 °C temperature for 10 minutes, and the pellet was washed two times using phosphate-buffered saline pH-7.4 (PBS). To stain the sample (dead cells), 3 μL PI of 20.0 mM concentration was added to the 1 mL solution (pellet resuspended in PBS) and incubated for 15 minutes. To remove the dye, the samples were centrifuged again and washed with PBS once. The final pellet was resuspended in 1 mL of PBS, and 30 μL of each undiluted sample was used to obtain fluorescence imaging. The cells were observed under fluorescence microscopy.[61]

[12] abbreviates: Staphylococcus aureus, ATCC29213.
The mark [13] stands for this setting: Pseudomonas aeruginosa, ATCC27853, 24 h.
Where [14] appears, read: MIC of the compound in combination with ciprofloxacin, S. aureus.
Where [15] appears, read: MIC of the compound in combination with vancomycin, S. aureus.
Where [16] appears, read: checkerboard, S. aureus, substance alone.
The mark [17] stands for this setting: compound with ciprofloxacin, S. aureus.
[18] abbreviates: compound with vancomycin, S. aureus.
Setting [19] is: MRSA ATCC 15187, 24 hours at 37 °C.
The mark [20] stands for this setting: Staphylococcus aureus, MRSA ATCC 15187, 24 hours at 37 °C.

What is called CC50 is the concentration giving 50% cytotoxicity. Read a high CC50 as better tolerance by the cells. With `CC(C)=CCc1c(O)ccc(C(=O)/C=C/c2ccc(O)cc2)c1O` [IBC, (E)-1-(2,4-dihydroxy-3-(3-methylbut-2-en-1-yl)phenyl)-3-(4-hydroxyphenyl) prop-2-en-1-one], the MIC in [1] was 5 µM (≈ 1.62 µg/mL); in data set [1] (setting [12]) it was 5 µM (≈ 1.62 µg/mL); in data set [2], above 100 µM; in data set [2] (Escherichia coli, ATCC25922), above 100 µM; in data set [3] (setting [13]) it was 24 µM (≈ 7.79 µg/mL); in data set [6] (setting [16]), 5 µM. Moreover, the MIC in data set [7] (setting [19]) and in data set [7] (setting [20]) was above 100 µM each time. In addition, the “Selectivity index (SI)” value in [4] amounted to 19. In data set [5], this molecule yielded a CC50 of 94 µM. Moreover, the “MIC combination (compound)” value in data set [6] (setting [14]) was determined as 5 µM; in data set [6] (setting [15]) it was 2.5 µM. Moreover, the Outcome of combination entry in data set [6] (setting [17]) and in data set [6] (setting [18]) was “Indifference (The FICI range of 0.5 to 4 indicates indifference)” in each case. The “∑ FICI” value in data set [6] (setting [17]) was 1.25; in data set [6] (setting [18]), 0.99. Moreover, the MBC was 6.25 µM (≈ 2.03 µg/mL) in data set [8] and 25 µM (≈ 8.11 µg/mL) in data set [9]. For the same molecule, the Time-kill profile entry in data set [10] is listed as “after 24 hours, an increase in CFU was observed; also recorded: concentration-dependent killing till 9 h”.

For the molecule `CC1(C)CCc2c(ccc3c2OC(c2ccc(O)cc2)CC3=O)O1` (stereo not drawn) [IBC-2, 2-(4-hydroxyphenyl)-8,8-dimethyl-2,3,9,10-tetrahydro-4H,8H-pyrano[2,3-f]chromen-4-one], the MIC is 5 µM (≈ 1.62 µg/mL) in [1]; 5 µM (≈ 1.62 µg/mL) in [1] (setting [12]); above 100 µM in data set [2]; above 100 µM in data set [2] (Escherichia coli, ATCC25922); 22 µM (≈ 7.14 µg/mL) in data set [3]; 24 µM (≈ 7.79 µg/mL) in data set [3] (setting [13]). For the same molecule, the MIC in [6] (setting [16]) is 5 µM; in [7] (setting [19]), above 100 µM; in [7] (setting [20]) it was above 100 µM. Besides, it took 115 µM to reach half-maximal cytotoxicity in [5] (CC50). For the same molecule, the results for the “MIC combination (compound)” value in data set [6] (setting [14]) and in data set [6] (setting [15]) were 0.625 µM and 5 µM, respectively. Besides, the Outcome of combination entry in [6] (setting [17]) and in data set [6] (setting [18]) was “Indifference (The FICI range of 0.5 to 4 indicates indifference)” each time. The “∑ FICI” value in [6] (setting [17]) is given as 0.625; in data set [6] (setting [18]), 2. In addition, the MBC is 12.5 µM (≈ 4.05 µg/mL) in [8] and 50 µM (≈ 16.2 µg/mL) in data set [9]. The “CFU count of S. aureus ATCC 29213 in time-kill study” value in data set [10] (2× MIC and 4× MIC, with increasing time (up to 24 h)) was “below the detection limit”. Also, the Time-kill profile entry in [10] was “concentration-dependent killing effect; also recorded: concentration and time-dependent killing effects”.

As for `CN[C@H](CC(C)C)C(=O)N[C@H]1C(=O)N[C@@H](CC(N)=O)C(=O)N[C@H]2C(=O)N[C@H]3C(=O)N[C@H](C(=O)N[C@H](C(=O)O)c4cc(O)cc(O)c4-c4cc3ccc4O)[C@H](O)c3ccc(c(Cl)c3)Oc3cc2cc(c3O[C@@H]2O[C@H](CO)[C@@H](O)[C@H](O)[C@H]2O[C@H]2C[C@](C)(N)[C@H](O)[C@H](C)O2)Oc2ccc(cc2Cl)[C@H]1O` [Vancomycin, vancomycin, reference compound], in data set [11], the “PI red fluorescence (cell integrity)” value is reported as “higher number of dead cells emitting red fluorescence”. The “MIC combination (drug)” value in [6] (MIC of vancomycin in combination with IBC, S. aureus) is 0.39 µM; in data set [6] (MIC of vancomycin in combination with IBC-2, S. aureus), 0.78 µM; in data set [6] (MIC of vancomycin in combination with IBC-3, S. aureus) it was 0.02 µM. Also, the MIC in [6] turned out to be 0.78 µM; in [7] (Staphylococcus aureus, 24 h), 0.7 µM (≈ 1.01 µg/mL).
